Experimental data as given in patent publication US6593339B1, “Use of compounds as antibacterial agents” (AstraZeneca AB, priority 1999, dated 2003).

Tested on: Helicobacter pylori Reference Strain NCTC 11 637
Test: Agar well diffusion test: inhibition zones around wells on blood agar plates
Type: cell-based
Conditions: 30 μl per 3 mm well, incubated four days
Procedure: Strain: Helicobacter pylori Reference Strain NCTC 11 637 (National Type Culture Collection, from Smittskyddsinstitutet in Solna, Sweden), an Antibiotic Sensitive Reference Strain
Helicobacter pylori was grown on blood agar plates, having a diameter of 90 mm. for three days under microaerophilic conditions at 37° C. The bacteria were suspended in PBS (phosphate buffer saline) to approximately 10^8 cfu/ml. Approximately 2 ml of the suspension was added to one agar plate and spread even on the surface of the agar. Overflow was removed with a syringe. Wells, like small holes, 3 mm in diameter, were made in the agarplate by removing agar. Three wells per plate were made. […] 30 μl of the solution was added to the wells. The plates were incubated for four days before they were checked for inhibition zones around the wells.

Question: `C[S+](C)[O-]` [DMSO, Di-methyl-sulphate-oxide] was tested. Which “inhibition zone around each well” value (solution 20 μg/ml) did it give?
Answer: Its value is “No inhibition zones”.

Question: Which results are given for `COc1ccc2cc([C@H](C)C(=O)O)ccc2c1` [Naproxen]?
Answer: zone of inhibition at 10000 µg/mL (Helicobacter pylori, NCTC11, 96 h, stock solution 10000 μg/ml, read-out: inhibition zone around each well): 16.6 mm; inhibition zone around each well (stock solution 100 μg/ml): No inhibition zones; inhibition zone around each well (stock solution 1000 μg/ml): No inhibition zones

Question: Which “inhibition zone around each well” value (stock solution 10000 μg/ml) does the source give for `CC(=O)N[C@H](C(=O)O)C(C)(C)SN=O` [SNAP, S-nitroso-N-acetyl-penicillamin] here?
Answer: The value was “No inhibition zones”.

Question: `COc1ccc2cc(C(C)C(=O)OCCCCO[N+](=O)[O-])ccc2c1` (stereo not drawn) [formula Ia] was tested. Which zone of inhibition at 100 µg/mL (Helicobacter pylori, NCTC11, 96 h, stock solution 100 μg/ml, read-out: inhibition zone around each well) did it give?
Answer: Its zone of inhibition at 100 µg/mL is 10.4 mm.

Question: What about the zone of inhibition at 1000 µg/mL (Helicobacter pylori, NCTC11, 96 h, stock solution 1000 μg/ml, read-out: inhibition zone around each well) of the same compound?
Answer: The zone of inhibition at 1000 µg/mL was 13 mm.

Question: What about the “inhibition zone around each well” value (stock solution 10000 μg/ml) of the same compound?
Answer: The value was “large”.

Question: And the “inhibition zone around each well” value (stock solution 100000 μg/ml)?
Answer: The value was “large”.
